Assay results: article PMC5885141 (Molecular imaging and biology : MIB : the official …, 2014)
IR800 = IRDye800CW

How the values were obtained:
PC-3 cells = test: Direct binding assay in PC-3 cells by fluorescence microscopy; format: cell-based, human; settings: 2 μM, 2 h incubation
GRPr and NMB-R = settings: with or without a chelated metal ion; same assay as in Fig. 2; ref [31]; cited from earlier work

IR800-GSG-t-BBN: IR800-linker-QWAVGHLM-NH2 with linker = GSG (IR800-GSGQWAVGHLM-NH2)
Direct binding to PC-3 cells (fluorescence microscopy) (PC-3 cells): bound to PC-3 cells to widely different extents

DO3A-CH2CO-G-ABz4-QWAVGHLM-NH2 [AMBA]
IC50 (GRPr and NMB-R): 2 to 5 nM
